{"source": "patent US11331368B2", "about": "“Angiotensin receptor agonists and uses thereof” (Monash University, priority 2017, dated 2022)", "key": {"human AT2R": {"target": "T1, human AT2R (Homo sapiens, UniProt P50052)", "T1 construct": "expressed in transfected cells", "T1 sequence (P50052 1-363)": "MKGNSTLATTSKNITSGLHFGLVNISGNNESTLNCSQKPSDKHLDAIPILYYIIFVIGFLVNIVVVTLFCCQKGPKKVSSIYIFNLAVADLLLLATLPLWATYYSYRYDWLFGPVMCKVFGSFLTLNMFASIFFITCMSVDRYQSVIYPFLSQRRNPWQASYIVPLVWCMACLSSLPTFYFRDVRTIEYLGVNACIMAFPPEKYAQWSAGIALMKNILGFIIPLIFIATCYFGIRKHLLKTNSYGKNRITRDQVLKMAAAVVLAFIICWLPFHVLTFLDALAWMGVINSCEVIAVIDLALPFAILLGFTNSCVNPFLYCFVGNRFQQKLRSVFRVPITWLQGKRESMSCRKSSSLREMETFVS", "assay": "Competition radioligand binding (125I-Sar1-Ile8-AngII) in AT2R-transfected HEK-293 cells", "conditions": "for Fold AT2R selectivity: AT2R over AT1R, Table 3", "quoted_text": "(§3) This will lead to the generation of IC50 values that determine the relative ability of test compounds to interact with both Angiotensin receptors.\n(§4) Cells were grown to approximately 80% confluence before being re-plated into 48 well plates at 1×10^5 cells/well and grown for 48 hours at 37° C. for a whole cell competition binding assay. [125I]-Sar1Ile8Ang II at 50,000 cpm, incubated for 45 minutes at 37° C., in the absence or presence of unlabeled ligands, prepared in binding buffer (DMEM, 0.1% BSA), were used in the competition assays at concentrations ranging from 1 μM to 10 μM. For each experiment, each ligand concentration was tested in duplicate or triplicate, and each experiment was repeated at least 3 separate times. […] The ability of each ligand to inhibit specific binding of [125I]-Sar1Ile8Ang II was measured on a gamma counter with all counts corrected for NSB."}, "human AT1R": {"target": "T2, human AT1R (Homo sapiens, UniProt P30556)", "T2 construct": "expressed in transfected cells", "T2 sequence (P30556 1-359)": "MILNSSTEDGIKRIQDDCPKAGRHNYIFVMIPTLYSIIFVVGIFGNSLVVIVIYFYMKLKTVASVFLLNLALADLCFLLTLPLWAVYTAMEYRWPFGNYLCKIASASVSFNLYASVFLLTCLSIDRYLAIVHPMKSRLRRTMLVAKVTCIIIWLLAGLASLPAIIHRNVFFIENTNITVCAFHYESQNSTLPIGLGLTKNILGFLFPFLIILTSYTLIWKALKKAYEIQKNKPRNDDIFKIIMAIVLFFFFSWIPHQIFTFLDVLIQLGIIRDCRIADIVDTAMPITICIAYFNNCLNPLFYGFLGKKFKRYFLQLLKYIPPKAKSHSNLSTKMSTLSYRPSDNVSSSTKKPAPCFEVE", "assay": "Competition radioligand binding (125I-Sar1-Ile8-AngII) in AT1R-transfected HEK-293 cells", "quoted_text": "as §3, §4"}, "[1]": {"tested_on": "male FVB/N mice on high salt diet, heart", "assay": "High salt (5%) diet intervention model, heart", "format": "in vivo, mouse", "conditions": "for MMP-13 protein expression in heart (Western blot) / macrophage infiltration/expression in heart (F4/80) / expression of P-IκBα (marker for NFκB activation) in heart: weeks 5-8, captopril 3 mg/kg/day; for MMP-13 protein expression in heart (Western blot) / macrophage infiltration/expression in heart (F4/80): peptide 75 pmol/kg/min s.c.; for MMP-13 protein expression in heart (Western blot) / macrophage infiltration/expression in heart (F4/80) / expression of P-IκBα (marker for NFκB activation) in heart / cardiac fibrosis (picrosirius red): Cand 2 mg/kg/day; for expression of P-IκBα (marker for NFκB activation) in heart: peptides 75 pmol/kg/min s.c.; for cardiac fibrosis (picrosirius red): weeks 5-8 of high salt diet, peptides 75 pmol/kg/min s.c. mini-pump, captopril 3 mg/kg/day in drinking water", "description": "(§1) C) In the intervention (or reversal) model, male FVB/N mice were treated with selective AT2Rs agonists after the establishment of cardiovascular disease using a high salt diet, in order to reverse cardiovascular pathologies. In some experiments, the ACE inhibitor captopril (dose) or the ARB candesartan cilexetil (dose) were given for 4 weeks in drinking water. Organs examined included heart, kidney and liver and these were compared to either untreated mice or high salt-fed mice that were treated with saline.\nA high-salt diet (5% salt) model is a clinically relevant and disease-reversal model which can replicate the high salt intake by humans which is currently a growing problem in the developed countries. High salt intake induces changes in the cardiovascular system and induces remodelling and fibrosis in the heart, kidney and liver.\n(§2) Mice were placed on either a normal rodent diet (0.35% NaCl) which acted as control or a high salt diet (5% sodium in food chow) for 8 weeks. After 4 weeks, mice were also treated subcutaneously (via osmotic mini-pump) with either saline or an AT2R agonist (75 pmol/kg/min subcutaneously) for 4 weeks. Mice continued to be fed a high salt diet whilst receiving these treatments.\nAll mice which underwent surgery were anaesthetized with Isoflurane (Isorrane) (5% induction and 2.5% maintenance) and an incision made in the midscapular region through which osmotic minipumps (Alzet model 2004, Alza Corp) were inserted for subcutaneous drug administration. The incision area was sutured with 6/0 DY silk (Dynek Pty Ltd) and antibiotic powder applied (Cicatrin, Pfizer) followed by intramuscular injection of the analgesic Cartrophen (0.1 ml of a 1.5 mg/ml stock solution; Biopharm Australia). Systolic blood pressure (SBP) was measured using non-invasive tail-cuff plethysmography apparatus (MC4000 Blood Pressure Analysis System, Hatteras Instrument Inc) before drug treatment (week 0), and then fortnightly. At the end of the 8 week treatment period mice were weighed before being killed by overdose of isoflurane inhalation and cervical dislocation.\nTo measure collagen deposition, frozen sections of heart, kidney or aorta (all 5 μm thickness) were air dried for 10 minutes and were brought through 3 times xylene (2 minutes each), and 3 times absolute alcohol washes before being rinsed in tap H2O for 30 seconds. Staining with an optimal concentration of picrosirius red (in this instance 0.05% picrosirius red diluted in saturated picric acid) was performed and left for an hour. Sections were then rinsed in water and differentiated in 0.01M HCl for 2 minutes, followed by dehydration via 3 times absolute alcohol washes. Then, slides were brought through 3 times xylene washes before being cover slipped according to standard histological techniques using DPX as the mounting medium. Images were taken under ×20 magnification, using bright field (Olympus, BX51) and circularized polarized light microscopy (DM IRB, Leica) while percentage of positive interstitial collagen staining per total field of view was quantified using ImageJ 1.46 software (Java, NIH), and averaged out from a total of eight views as the final percentage collagen content in a particular animal.\nImmunostaining was performed on 5 μm thick transverse frozen heart sections. These sections were air dried and fixed in ice-cold acetone for approximately 15 minutes before washing with 0.01M PBS buffer (3×10 minutes). Sections were then incubated with 10% goat serum in 0.01M PBS for 30 minutes to reduce non-specific binding. If the primary antibody is raised in goat, this pre-blocked medium is substituted with 5% BSA in PBS and Triton-X. Next, blocking buffers were removed and the primary antibody to respective markers were applied overnight at room temperature based on the following dilution and origin of the antibodies: α-SMA (1:500, Abcam), Vimentin (1:500, Santa Cruz), P-IκBα (1:200, Cell Signalling), F4/80 macrophage (1:100, Serotec). […]"}, "[2]": {"tested_on": "male FVB/N mice on high salt diet, liver", "assay": "High salt (5%) diet intervention model, liver", "format": "in vivo, mouse", "conditions": "weeks 5-8; peptides 75 pmol/kg/min s.c.; Cand 2 mg/kg/day, captopril 3 mg/kg/day", "description": "as §1, §2\nLiver sections used either picrosirius red staining or Masson's trichome staining as described above. Higher concentrations of picrosirius red were often used under polarized light microscopy. The liver was removed and sectioned with half of the liver placed in 10% formalin and the rest frozen in liquid nitrogen before being stored in ˜80° C. freezer for future use. Formalin fixed, paraffin embedded livers were sectioned at thickness of 4 μm and were stained with Masson's trichrome according to standard procedures for analysis of liver fibrosis. […] Sections were re-fixed in Bouin's solution for 1 hour at 56° C. to improve staining quality then rinsed in running tap water for 5-10 minutes to remove yellow colour. Following this, sections were stained in Weigert's iron hematoxylin working solution for 10 minutes. Rinsed in running warm tap water for 10 minutes. Washed in distilled water. Stained in Biebrich scarlet-acid fuchsin solution for 10-15 minutes.\nWashed in distilled water. Differentiated in phosphomolybdic-phosphotungstic acid solution for 10-15 minutes or until collagen was no longer red. Sections were transferred directly (without rinse) to aniline blue solution and stained for 5-10 minutes. Rinsed briefly in distilled water and differentiated in 1% acetic acid solution for 2-5 minutes. Washed in distilled water. […] Mounted with DPX mounting medium. Quantification of liver fibrosis was performed using images captured with the Aperio scanner (Monash Histology Platform, Monash University), with ×5 magnification. Each liver section had 5 different fields of view photographed at this magnification. Percentage of interstitial and perivascular collagen was analysed and quantified using ImageJ 1.48 software (Java, NIH), and the percentage from 5 random fields of view were averaged for final percentage of collagen for that particular animal. All analysis of collagen expression was conducted in a blinded fashion."}, "[3]": {"conditions": "PD123319 1 mg/kg/day s.c. with β-Pro7-Ang III or D-Arg2-β-Pro7-Ang III"}}}
{"molecule": "CC[C@H](C)[C@H](NC(=O)[C@H](Cc1ccc(O)cc1)NC(=O)[C@@H](NC(=O)[C@H](N)CCCNC(=N)N)C(C)C)C(=O)N[C@@H](Cc1c[nH]cn1)C(=O)N1CCC[C@H]1C(=O)N[C@@H](Cc1ccccc1)C(=O)O", "note": "[D-Arg-Ang III, D-Arg-Val-Tyr-Ile-His-Pro-Phe]", "values": [{"measurement": "Fold AT2R selectivity", "setting": "human AT2R", "value": 400, "unit": "fold"}, {"measurement": "IC50", "setting": "human AT1R; 125I-Sar1-Ile8-AngII", "value": "> 10", "unit": "µM"}]}
{"molecule": "Cc1cc(Cn2cnc3c2C[C@@H](C(=O)O)N(C(=O)C(c2ccccc2)c2ccccc2)C3)ccc1N(C)C", "note": "[PD123319, reference compound]", "values": [{"measurement": "effect of AT2R antagonist co-treatment on peptide anti-fibrotic effect (cardiac fibrosis, picrosirius red)", "setting": "[1]; [3]", "value": "attenuated the anti-fibrotic effects of these peptides"}, {"measurement": "effect of AT2R antagonist co-treatment on peptide inhibition of myofibroblast differentiation (α-SMA)", "setting": "[1]; [3]", "value": "attenuated the inhibitory effects of these peptides"}]}
{"molecule": "CCOc1nc2cccc(C(=O)OC(C)OC(=O)OC3CCCCC3)c2n1Cc1ccc(-c2ccccc2-c2nnn[nH]2)cc1", "note": "(stereo not drawn) [candesartan cilexetil, reference compound]", "values": [{"measurement": "MMP-13 protein expression in heart (Western blot)", "setting": "[1]", "value": "Neither captopril nor Cand altered MMP-13 levels"}, {"measurement": "macrophage infiltration/expression in heart (F4/80)", "setting": "[1]", "value": "reversed by all agents"}, {"measurement": "expression of P-IκBα (marker for NFκB activation) in heart", "setting": "[1]", "value": "reversed only by β-Ile^5-Ang II"}, {"measurement": "cardiac fibrosis (picrosirius red)", "setting": "[1]", "value": "did not significantly reduce fibrosis"}]}
{"molecule": "C[C@H](CS)C(=O)N1CCC[C@H]1C(=O)O", "note": "[captopril, reference compound]", "values": [{"measurement": "liver fibrosis (picrosirius red, polarized light)", "setting": "[2]", "value": "similarly inhibited the pro-fibrotic effects of high salt in the liver"}, {"measurement": "liver steatosis (Oil Red O)", "setting": "[2]", "value": "significantly reduced excess lipid accumulation"}, {"measurement": "MMP-13 protein expression in heart (Western blot)", "setting": "[1]", "value": "Neither captopril nor Cand altered MMP-13 levels"}, {"measurement": "macrophage infiltration/expression in heart (F4/80)", "setting": "[1]", "value": "reversed by all agents"}, {"measurement": "expression of P-IκBα (marker for NFκB activation) in heart", "setting": "[1]", "value": "reversed only by β-Ile^5-Ang II"}, {"measurement": "cardiac fibrosis (picrosirius red)", "setting": "[1]", "value": "also reversed fibrosis"}]}
{"molecule": "CC[C@H](C)[C@H](NC(=O)C[C@H](Cc1ccc(O)cc1)NC(=O)[C@@H](NC(=O)[C@@H](N)CCCNC(=N)N)C(C)C)C(=O)N[C@@H](Cc1c[nH]cn1)C(=O)N1CCC[C@H]1C(=O)N[C@@H](Cc1c[nH]c2ccccc12)C(=O)O", "note": "[βTyr-Trp-8-Ang III, Arg-Val-β-Tyr-Ile-His-Pro-Trp]", "values": [{"measurement": "binding at AT2R (displacement of 125I-Sar1-Ile8-AngII), in words", "setting": "human AT2R; transfected HEK-293 cells", "value": "high affinity"}, {"measurement": "binding at AT1R (displacement of 125I-Sar1-Ile8-AngII), in words", "setting": "human AT1R", "value": "bind poorly"}]}
{"molecule": "Arg-Val-Tyr-Ile-His-β-Pro-Ala [βPro-Ala-8-Ang III]", "values": [{"measurement": "Fold AT2R selectivity", "setting": "human AT2R", "value": 200, "unit": "fold"}]}
{"molecule": "Arg-Val-Tyr-β-Ile-His-Pro-Trp [βILe-Trp-8-Ang III]", "values": [{"measurement": "Fold AT2R selectivity", "setting": "human AT2R", "value": ">2500", "unit": "fold"}]}
{"molecule": "Nicotinamido-Arg-Val-Tyr-Ile-His-β-Pro-Trp [Nic-βPro-Trp-8-Ang III]", "values": [{"measurement": "Fold AT2R selectivity", "setting": "human AT2R", "value": ">15,000 fold"}]}
{"molecule": "Tetrazole-CONH- Arg-Val-Tyr-Ile-His- β-Pro-Phe [Tet-βPro-Ang III]", "values": [{"measurement": "Fold AT2R selectivity", "setting": "human AT2R", "value": ">60,000 fold"}]}
{"molecule": "Tetrazole-CONH-Arg-Val-Tyr-Ile-His-β-Pro-Trp [Tet-βPro-Trp-8-Ang III]", "values": [{"measurement": "Fold AT2R selectivity", "setting": "human AT2R", "value": ">275,000 fold"}]}
